Experimental data: publication PMC7737769, “Pharmacological inhibition of syntenin PDZ2 domain impairs breast cancer cell activities and exosome loading with syndecan and EpCAM cargo” (Journal of Extracellular Vesicles, 2020)
Read-outs that look alike come from different tables or passages of the source.

How the values were obtained:
[1] = molecular target: T1, syntenin‐PDZ tandem plus C‐terminal domain (Homo sapiens, UniProt O00560); assay: Surface plasmon resonance (BIAcore), syntenin PDZ tandem plus C-terminal domain; type: binding
T1 construct: made in house; host or cells: Biotin XCell F' E. coli cells
T1 sequence (O00560 107-298): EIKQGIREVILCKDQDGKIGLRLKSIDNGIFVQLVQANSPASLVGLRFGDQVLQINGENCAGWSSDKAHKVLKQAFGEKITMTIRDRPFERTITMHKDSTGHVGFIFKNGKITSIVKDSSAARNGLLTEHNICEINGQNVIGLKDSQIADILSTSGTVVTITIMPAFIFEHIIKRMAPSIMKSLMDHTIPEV
Description: All SPR experiments were conducted with a BIAcore T200 instrument (GE Healthcare), at 25°C. A total of 8000 resonance units (RU) of biotinylated ligands (N‐terminal 6xHis tagged biotinylated syntenin tandem, syntenin tandem with C terminus, GRASP55 tandem or GST as control) were immobilized on a streptavidin‐sensor chip (GE Healthcare). Analytes (C58 and SyntOFF compounds) were perfused at 30 µl per min in running buffer (10 mM HEPES pH 7.4, 150 mM NaCl, 0.005% Tween20) at different concentrations. The reference channel was N‐terminal 6xHis tagged biotinylated GST protein. The injection time was 240 s, long enough for the sensorgrams to reach equilibrium, and the dissociation time was 240 s. To carry out these SPR experiments, we employed the method known as ‘single‐cycle kinetics’ described in 2006 by Karlsson and co‐workers (Karlsson, Katsamba, Nordin, Pol, & Myszka, 2006). It consists in injecting the analyte at increasing concentrations, without regeneration steps between each sample injection to avoid that folded‐proteins can be damaged after regeneration steps. Equilibrium dissociation constants (KD) were calculated by fitting the data to a simple Langmuir binding isotherm using GraphPad Prism. For determination of the apparent KD, signals obtained at equilibrium were plotted as a function of compound concentration. […]

[2] = tested on: T2, GRASP55‐JAM‐C complex; assay: HTRF assay, GRASP55-JAM-C interaction; type: biochemical, human; conditions: 400µM compound; Figure 1c
T2 construct: Human GRASP55 tandem PDZ; made in house; host or cells: E. coli BL21 (DE3)
Description: HTRF assays were performed in white 96Well Small VolumeHiBase Polystyrene Microplates (Greiner) with a total working volume of […], as described previously (Milhas et al., 2016). Briefly, compounds were firstly dispensed into the wells at 400 µM for the primary screen or with serial DMSO dilutions for IC50 measurement assays. Primary screening assays have been performed in monoplicate while IC50 measurements were performed in triplicates. All HTRF reagents were purchased from CisBio Bioassays and reconstituted according to the supplier protocols. The plates were spun for 3 min at 500 × g and then incubated at 4°C for 16 h. The HTRF signals were recorded on a POLAR star Omega plate reader (BMG Labtech) with an excitation filter at 337 nm and fluorescence wavelength measurement at 620 and 665 nm, an integration delay of 60 µs and an integration time of 400 µs. Results were analysed with a two‐wavelength signal ratio: [intensity (665 nm)/intensity (620 nm)] × 10^4. Percentage of inhibition was calculated using the following equation: % inhibition = [(compound signal)–(min signal)]/[(max signal)–(min signal)] × 100, where ‘max signal’ is the signal ratio with the compound vehicle alone (DMSO) and ‘min signal’ the signal ratio without protein B. For IC50 measurements, values were normalized and fitted with Prism (GraphPad software) using the following equation: Y = 100/(1+((X/ IC50)ˆHill slope)).
The search strategy for PDZ2 syntenin inhibitors was based on the PDZ targeted library developed from Enamine compound collection. The PDZ targeted library was developed to cover virtually all PDZ domains. Consequently, to create the syntenin PDZ2 focused library we used two independent paths: docking of the PDZ targeted library against structures of syntenin PDZ2 available in Protein Data Bank and a random selection from the PDZ targeted library. The docking has produced 21 virtual hits, which were added to 118 randomly selected compounds (10% of the pan PDZ library). The resultant set of 139 compounds, syntenin PDZ library was subjected to experimental validation. The primary screen was performed at 400µM using a previously validated Homogeneous Time Resolved Fluorescence (HTRF) assay (Milhas et al., 2016). HTRF is based on Fluorescence Resonance Energy Transfer (FRET) between two fluorescent reagents. In the present case, Anti‐GST‐Terbium antibody and streptavidin‐bound Dynamic2 were used as donor and acceptor respectively. Interactions between GST PDZ‐fusion proteins and biotinylated peptides containing PDZ binding motifs were challenged with the potential inhibitors. In parallel, control experiments were performed with a biotinylated‐GST to verify that compounds were not interfering with the FRET signal in a non‐specific manner. To identify inhibitors of syntenin PDZ interactions, we tested for the effect of the 139 compounds on syntenin‐SDC2 and syntenin‐Frizzled7 complexes (Figure 1a; Table S1). When the HTRF signal dropped below 0.9, inhibition was considered as effective. […] Noteworthy, these compounds had no effect on other PDZ complexes like GRASP55‐JAM‐B or GRASP55‐JAM‐C and Erbin‐Erbb2 or Erbin‐P0071 (Figure 1c).

Kd ([1]; DMSO as vehicle, read-out: KD, syntenin‐PDZ tandem plus C‐terminal domain)	Structure (SMILES)	Kd ([1]; compound in PBS, read-out: apparent KD, syntenin‐PDZ tandem plus C‐terminal domain)	GST-GRASP JAM-C (signal ratio) [2]
	CC(C)[C@H](NC(=O)CSc1ccc(Cl)cc1)C(=O)O [Compound C58]	886 µM	1
130 µM	CC(C)[C@H](NC(=O)CCSc1ccc(Cl)cc1)C(=O)O [SyntOFF, (S)‐2‐(3‐(4‐chlorophenylthio)propanamido)‐3‐methylbutanoic acid]		
